US11446287B2, “Compounds and methods for EP300 or CBP modulation and indications therefor” (Opna Immuno-Oncology SA, priority 2019, dated 2022)

These compounds were tested against T1, Recombinant human EP300 containing the bromodomain (EP300-BD (1040-1161)) (Homo sapiens, UniProt Q09472) (assay: EP300 Alphascreen binding assay).
T1 construct: Recombinant human EP300 bromodomain (EP300-BD (1040-1161)); made in house; host or cells: E. coli BL21-CodonPlus (DE3), modified pET vector
T1 sequence (Q09472 1040-1161): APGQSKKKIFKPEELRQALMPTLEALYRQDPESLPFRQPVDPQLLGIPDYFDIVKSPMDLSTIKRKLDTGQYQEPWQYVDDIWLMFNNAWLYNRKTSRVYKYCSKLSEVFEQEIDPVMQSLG
In short: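 Displacement of a biotinylated acetyl-K56 histone H3 peptide from the N-His bromodomain construct (1040-1161) measured by AlphaScreen proximity, beads at 7.5 μg/ml final, read 60 min after addition. Protein, peptide and compound first incubated 1 h at room temperature, pH 7.5 HEPES buffer; IC50 by four-parameter logistic fit.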

| Compound | IC50 [nM] |
| --- | --- |
| Cc1noc(C)c1-c1cnc2c(c1)c(-c1ccc(C(=O)O)cc1OC(F)(F)F)cn2-c1ccnc(C(C)C)c1 [P-0203, 4-(5-(3,5-dimethylisoxazol-4-yl)-1-(2-isopropylpyridin-4-yl)-1H-pyrrolo[2,3-b]pyridin-3-yl)-3-(trifluoromethoxy)benzoic acid] | 0.1 to 1000 |
| Cc1noc(C)c1-c1cnc2c(-c3cn(C)nc3C3CC3)c(C(F)(F)F)n([C@@H](C)c3ccccn3)c2c1 [P-0237, (S)-4-(3-(3-cyclopropyl-1-methyl-1H-pyrazol-4-yl)-1-(1-(pyridin-2-yl)ethyl)-2-(trifluoromethyl)-1H-pyrrolo[3,2-b]pyridin-6-yl)-3,5-dimethylisoxazole] | 0.1 to 1000 |
| COc1ccc(C(=O)O)cc1-c1cn(C(C)(c2ccccn2)c2ccccn2)c2cc(-c3c(C)noc3C)cnc12 [P-0172, 3-(1-(1,1-di(pyridin-2-yl)ethyl)-6-(3,5-dimethylisoxazol-4-yl)-1H-pyrrolo[3,2-b]pyridin-3-yl)-4-methoxybenzoic acid] | 1000 to 8000 |
| CCOc1cc(C(=O)O)cc(OCC)c1-n1cc(CC2CCC2)c2ncc(-c3c(COC)noc3C)cc21 [P-0210, 4-(3-(cyclobutylmethyl)-6-(3-(methoxymethyl)-5-methylisoxazol-4-yl)-1H-pyrrolo[3,2-b]pyridin-1-yl)-3,5-diethoxybenzoic acid] | 0.1 to 1000 |
| CCOc1cc(C(=O)O)cc(OCC)c1-n1cc(-c2ccnc(F)c2)c2ncc(-c3c(C)noc3C)cc21 [P-0222, 4-(6-(3,5-dimethylisoxazol-4-yl)-3-(2-fluoropyridin-4-yl)-1H-pyrrolo[3,2-b]pyridin-1-yl)-3,5-diethoxybenzoic acid] | 0.1 to 1000 |
| CCOc1cc(C(=O)O)cc(OCC)c1-n1cc(-c2cccnc2)c2ncc(-c3c(C)noc3C)cc21 [P-0173, 4-(6-(3,5-dimethylisoxazol-4-yl)-3-(pyridin-3-yl)-1H-pyrrolo[3,2-b]pyridin-1-yl)-3,5-diethoxybenzoic acid] | 0.1 to 1000 |
| Cc1noc(C)c1-c1cnc2c(c1)c(-c1cccc(CC(=O)O)c1)cn2C(c1ccccn1)C1CCCC1 (stereo not drawn) [P-0018, 2-(3-(1-(cyclopentyl(pyridin-2-yl)methyl)-5-(3,5-dimethylisoxazol-4-yl)-1H-pyrrolo[2,3-b]pyridin-3-yl)phenyl)acetic acid] | 0.1 to 1000 |
| Cc1noc(C)c1-c1cnc2c(c1)c(-c1ccc(C(=O)O)cc1OC1CC1)cn2[C@@H](C)c1ccccn1 [P-0170, (S)-3-cyclopropoxy-4-(5-(3,5-dimethylisoxazol-4-yl)-1-(1-(pyridin-2-yl)ethyl)-1H-pyrrolo[2,3-b]pyridin-3-yl)benzoic acid] | 0.1 to 1000 |
| Cc1noc(C)c1-c1cnc2c(c1)c(-c1ccc(C(=O)O)cc1)cn2C(C)c1ccc(F)cn1 (stereo not drawn) [P-0014, 4-(5-(3,5-dimethylisoxazol-4-yl)-1-(1-(5-fluoropyridin-2-yl)ethyl)-1H-pyrrolo[2,3-b]pyridin-3-yl)benzoic acid] | 0.1 to 1000 |
| Cc1ccccc1-n1cc(-c2ccc(C(=O)O)cc2OC(F)(F)F)c2cc(-c3c(C)noc3C)cnc21 [P-0231, 4-(5-(3,5-dimethylisoxazol-4-yl)-1-(o-tolyl)-1H-pyrrolo[2,3-b]pyridin-3-yl)-3-(trifluoromethoxy)benzoic acid] | 0.1 to 1000 |
| CCOc1cc(C(=O)O)cc(OCC)c1-n1cc(-c2ccc(OC)cc2F)c2ncc(-c3c(C)noc3C)cc21 [P-0194, 4-(6-(3,5-dimethylisoxazol-4-yl)-3-(2-fluoro-4-methoxyphenyl)-1H-pyrrolo[3,2-b]pyridin-1-yl)-3,5-diethoxybenzoic acid] | 0.1 to 1000 |
| Cc1noc(C)c1-c1cnc2c(c1)c(-c1ccc(C(=O)O)cc1OC(F)(F)F)cn2-c1cc(F)ccc1F [P-0233, 4-(1-(2,5-difluorophenyl)-5-(3,5-dimethylisoxazol-4-yl)-1H-pyrrolo[2,3-b]pyridin-3-yl)-3-(trifluoromethoxy)benzoic acid] | 0.1 to 1000 |
